Results reported in ChEMBL document CHEMBL4840325, “Discovery of an Unexpected 1,4-Oxazepine-Linked seco-Fluostatin Heterodimer by Inactivation of the Oxidoreductase-Encoding Gene flsP” (2021).
Converted amounts (≈) assume the structure as drawn. The source made the active and inactive calls. No cut-off for these calls is given here.

Experiments:
MCF7 = test: Cytotoxicity against human MCF7 cells assessed as reduction in cell viability at 0.5 to 16 uM measured after 72 hrs by SRB assay; format: functional, cell-based; settings: dose 0.5-16 µM
SF-268 = test: Cytotoxicity against human SF-268 cells assessed as reduction in cell viability at 0.5 to 16 uM measured after 72 hrs by SRB assay; format: functional, cell-based; settings: dose 0.5-16 µM
HepG2 = test: Cytotoxicity against human HepG2 cells assessed as reduction in cell viability at 0.5 to 16 uM measured after 72 hrs by SRB assay; format: functional, cell-based; settings: dose 0.5-16 µM
Candida albicans = test: Antifungal activity against Candida albicans SC5314 assessed as fungal growth inhibition incubated for 16 to 18 hrs by broth microdilution method; format: functional; settings: time 16-18 hrs

Row | Structure (SMILES) | Activity (MCF7) | Activity (SF-268) | Activity (HepG2) | MIC (Candida albicans) [µM]
1 | CC(=O)/C=C/c1c2c(c3c4c1c(O)nn4[C@@H]1c4c(cc(O)c5c4C(=O)c4cccc(O)c4-5)C(=O)[C@](C)(O3)[C@H]1O)-c1c(O)cccc1C2=O | inactive | inactive | inactive | –
2 | CC1(Nc2ccccc2C(=O)O)C(=O)c2cc(O)c3c(c2[C@@H](O)[C@@H]1O)C(=O)c1cccc(O)c1-3 (stereo partly specified) | inactive | inactive | inactive | 100 (≈ 46.1 µg/mL)
3 | C[C@]12O[C@H]1[C@H](Nc1ccccc1C(=O)O)c1c(cc(O)c3c1C(=O)c1cccc(O)c1-3)C2=O | inactive | inactive | inactive | 100 (≈ 44.3 µg/mL)
4 | CO[C@@H]1c2c(cc(O)c3c2C(=O)c2cccc(O)c2-3)C(=O)C(C)(Cl)[C@H]1O (stereo partly specified) | inactive | inactive | inactive | 100 (≈ 37.5 µg/mL)
5 | CCC(C)C(=O)O[C@@H]1c2c(cc(O)c3c2C(=O)c2cccc(O)c2-3)C(=O)C(C)(Cl)[C@H]1O (stereo partly specified) | inactive | inactive | inactive | –
6 | C[C@]12O[C@H]1[C@H](n1oc(=O)c3ccccc31)c1c(cc(O)c3c1C(=O)c1cccc(O)c1-3)C2=O | inactive | inactive | inactive | –
